Columns and labels:
Type in all cases: cell-based, human
[1] = test system: Compound I-resistant LAMA 84 cells (LAMA 84R); assay: Apoptosis by Wright Giemsa-stained cytospin slides in resistant cells; conditions: Table 7, 24 hr, Compound I (1.0 or 1.25 μM), SAHA (1.0 or 2.0)
Experimental: For studies involving the LAMA 84-R line, cells are washed free of drug and resuspended in drug-free medium 48 h before experimentation.
Assessment of Apoptosis: After drug exposures, cytocentrifuge preparations are stained with Wright-Giemsa and viewed by light microscopy to evaluate the extent of apoptosis (i.e., cell shrinkage, nuclear condensation, formation of apoptotic bodies, etc.) as described previously (Yu et al., Nat. Rev. Cancer 1:294-202). For these studies, the percentage of apoptotic cells is determined by evaluating ≧500 cells/condition in triplicate. To confirm the results of morphological analysis, Annexin V/PI staining is used. Annexin V/PI (BD PharMingen, San Diego, Calif.) analysis of cell death is carried out as per the manufacturer's instructions. In studies involving TNF and TNF soluble receptor, both compound are combined and maintained at room temperature 20 min prior to use. For these experiments 1-2×10^5 cells per condition are harvested. Analysis is carried out using a Becton-Dickinson FACScan cytofluorometer (Mansfield, Mass.). […] The slides are treated with acetic acid/ethanol (1:2), stained with terminal transferase reaction mixture containing 1× terminal transferase reaction buffer (0.25 units/μl terminal transferase, 2.5 mM CoCl2, and 2 pmol fluorescein-12-dUTM; Boehringer Mannheim, Indianapolis, Ind.), and visualized using fluorescence microscopy.

K562 cells [2] = assay: Loss of mitochondrial membrane potential (DiOC6 flow cytometry); conditions: 2.0 μM SAHA ± 250 nM Compound I
Experimental: Determination of MMP(ΔΨm): MMP is monitored using DiOC6 [36]. For each condition, 4×10^5 cells are incubated for 15 min at 37° C. in 1 ml of 40 nM DiOC6 (Calbiochem) and subsequently analyzed using a Becton Dickinson FACScan cytofluorometer with excitation and emission settings of 488 and 525 nm, respectively. Control experiments documenting the loss of ΔΨm are performed by exposing cells to 5 μM of […] cyanide m-chlorophenylhydrazone (Sigma Chemical Co.; 15 min, 37° C.), an uncoupling agent that abolishes the MMP.

p21^CIP1 = assay: Western analysis of p21CIP1 in K562 cells; conditions: 2.0 μM SAHA ± 250 nM Compound I
Experimental: Immunoblot Analysis: Immunoblotting is performed as described previously (Yu et al., Nat. Rev. Cancer 1:294-202). In brief, after drug treatment cells are pelleted by centrifugation, and lysed immediately in Laemmli buffer [1×=30 mM Tris-base (pH 6.8), 2% SDS, […] β-mercaptoethanol, and 10% glycerol], and briefly sonicated. Homogenates are quantified using Coomassie protein assay reagent (Pierce, Rockford, Ill.). Equal amounts of protein (20 μg) are boiled for 10 min, separated by SDS-PAGE (5% stacker and 10% resolving), and electroblotted to nitrocellulose membrane. After blocking in TBS-T (0.05%) and 5% milk for 1 h at 22° C., the blots are incubated in fresh blocking solution with an appropriate dilution of primary antibody for 4 h at 22° C. […]
K562 cells are treated as above, and monitored for expression of Bcl-xL, Mcl-1, and XIAP. […]

LAMA 84 cells = assay: Annexin V/PI flow cytometry of cell death; conditions: 200 nM Compound I ± 1.0 μM SAHA for 24 hr
Experimental: For these studies, the percentage of apoptotic cells is determined by evaluating ≧500 cells/condition in triplicate. To confirm the results of morphological analysis, Annexin V/PI staining is used. Annexin V/PI (BD PharMingen, San Diego, Calif.) analysis of cell death is carried out as per the manufacturer's instructions. In studies involving TNF and TNF soluble receptor, both compound are combined and maintained at room temperature 20 min prior to use. For these experiments 1-2×10^5 cells per condition are harvested. Analysis is carried out using a Becton-Dickinson FACScan cytofluorometer (Mansfield, Mass.). To further confirm the morphology results, TUNEL staining is used. For TUNEL staining, cytocentrifuge preparations are obtained and fixed with 4% formaldehyde. The slides are treated with acetic acid/ethanol (1:2), stained with terminal transferase reaction mixture containing 1× terminal transferase reaction buffer (0.25 units/μl terminal transferase, 2.5 mM CoCl2, and 2 pmol fluorescein-12-dUTM; Boehringer Mannheim, Indianapolis, Ind.), and visualized using fluorescence microscopy.

K562 cells [3] = assay: Clonogenic survival in soft agar; conditions: 2.0 μM SAHA ± 250 nM Compound I for 24 hr, washed, 12-day incubation
Experimental: Analysis of erythroid maturation of K562 cells is performed by monitoring the production of hemoglobin as previously described (Yang et al., J. Biol. Chem. 2001, 276:25742-52). Clonogenic Survival: Effects of drug treatment on the clonogenic survival of leukemia cells is determined using a previously described clonogenic assay (Yu et al., Mol. Pharmacol. 2001, 60: 143-54).

| SMILES | Compound I + SAHA % of apoptotic cells [1] [%] | percentage of cells displaying loss of mitochondrial membrane potential (ΔΨm) (K562 cells [2]; 0 hours) [%] | percentage of cells displaying loss of mitochondrial membrane potential (ΔΨm) (K562 cells [2]; 6 hours) [%] | percentage of cells displaying loss of mitochondrial membrane potential (ΔΨm) (K562 cells [2]; 24 hours) [%] | percentage of cells displaying loss of mitochondrial membrane potential (ΔΨm) (K562 cells [2]; 48 hours) [%] | induction of p21^CIP1 (p21^CIP1) | % Annexin V/PI (LAMA 84 cells) [%] | percentage of cells displaying loss of mitochondrial membrane potential (ΔΨm) (K562 cells [2]; 12 hours) [%] | percentage of cells displaying loss of mitochondrial membrane potential (ΔΨm) (K562 cells [2]; 18 hours) [%] | Clonogenic survival (% control) (K562 cells [3]) |
| --- | --- | --- | --- | --- | --- | --- | --- | --- | --- | --- |
| Cc1ccc(NC(=O)c2ccc(CN3CCN(C)CC3)cc2)cc1Nc1nccc(-c2cccnc2)n1 [Compound I, N-{5-[4-(4-methyl-piperazino-methyl)-benzoylamido]-2-methylphenyl}-4-(3-pyridyl)-2-pyrimidine-amine] | 14.8 ± 4.7 | 5.7 ± 1.8 | 8.8 ± 1.9 | 17.8 ± 3.4 | 41.3 ± 4.3 | – | – | – | – | – |
| O=C(CCCCCCC(=O)Nc1ccccc1)NO [SAHA, suberoylanilide hydroxamic acid] | 10.3 ± 3.4 | 5.4 ± 1.6 | 8.1 ± 1.9 | 16.4 ± 2.9 | 20.5 ± 2.8 | robust induction | 15.2 ± 2.4 | 10.4 ± 2.1 | 12.3 ± 2.8 | 21.8 ± 3.6 |

Reference: patent US20060100140A1, “Combination of a) n-{5-[4-(4-methyl-piperazino-methyl)-benzoylamido]2-methylphenyl}-4- (3-pyridyl)-2-pyrimidine-amine and b) a histone deacetylase inhibitor for the treatment of leukemia” (priority 2002, published 2006)
